Several values for one entry are separate records, joined by “and”; a condition that tells them apart may be missing. Equal values may be shown once.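 These data come from cells grown in 96-well plates and exposed to compound for 48 hours at five concentrations. GI50 = concentration required for 50% inhibition of growth. Definition used: TGI = concentration required for complete inhibition of growth.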
Columns and labels:
Assay in all cases: DTP human tumour cell line panel, 48 h
BT-549 breast = test system: BT-549 breast
SF-295 CNS = test system: SF-295 CNS
ACHN renal = test system: ACHN renal
SW-620 colon = test system: SW-620 colon
UACC-62 melanoma = test system: UACC-62 melanoma
TK-10 renal = test system: TK-10 renal
MCF7 breast = test system: MCF7 breast
NCI-H460 lung = test system: NCI-H460 lung

| Compound | GI50 (BT-549 breast) [µM] | GI50 (SF-295 CNS) [µM] | GI50 (ACHN renal) [µM] | TGI (ACHN renal) | GI50 (SW-620 colon) [µM] | TGI (SW-620 colon) [µM] | GI50 (UACC-62 melanoma) [µM] | TGI (UACC-62 melanoma) | GI50 (TK-10 renal) [µM] | TGI (TK-10 renal) | GI50 (MCF7 breast) [µM] | TGI (MCF7 breast) | GI50 (NCI-H460 lung) [µM] | TGI (NCI-H460 lung) | TGI (BT-549 breast) [µM] | TGI (SF-295 CNS) [µM] |
| --- | --- | --- | --- | --- | --- | --- | --- | --- | --- | --- | --- | --- | --- | --- | --- | --- |
| CC(=O)Oc1ccccc1C(=O)Nc1ncc([N+](=O)[O-])s1 | 1.97 | 1.91 | 2.74 | 11.3 µM and > 100 µM | 2.76 | > 100 | 1.23 | 6.71 µM and > 47.3 µM | 3.75 | 10.3 µM and > 100 µM | 2.26 | 10.3 µM and > 100 µM | 2.76 | 12.2 µM and > 100 µM |  |  |
| C1=C\COCc2cc(ccc2OCCN2CCCC2)Nc2nccc(n2)-c2cccc(c2)COC/1 | 4.67 | 3.34 | 1.12 | 4.8 µM | 1.48 | 6.07 | 2.02 | 5.2 µM | 3.33 | 5.79 µM | 0.772 | 3.37 µM | 1.39 | 5.12 µM | 6.66 | 5.94 |
| Cc1nc(-[n+]2nc(-c3ccncc3)nn2-c2ccccc2)sc1C |  |  |  | > 100 µM |  | > 100 |  | > 100 µM |  | 99.1 µM |  | > 100 µM |  |  | 41 | > 100 |
| COc1ncc(-c2ccc3ncnc(Nc4cccc(Cl)c4)c3c2)cc1NS(=O)(=O)C1CC1 |  |  |  |  | > 100 | > 100 |  |  |  |  |  |  |  |  |  |  |
| O=C1c2ccccc2-c2c1c1ccccc1c(=O)n2CCCCl | 14.6 | 6.34 | 3.03 | 12.3 µM | 8.75 | > 100 | 6.75 | 23.9 µM | 3.26 | 14.3 µM | 2.18 | 62.4 µM | 3.57 | > 100 µM | 58.3 | 23.1 |
| O=CN1CCN(CC(O)CN2CCCCC2)CC1 (centres undefined) |  |  |  | > 100 µM |  | > 100 |  | > 100 µM |  | > 100 µM |  | > 100 µM |  |  | > 100 | > 100 |
| O=C1NC(=O)/C(=C\c2ccccc2)C2=C1CCCC2 | 4.13 | 3.98 | 5.78 | 18.6 µM | 2.37 | 6.94 | 3.13 | 9.13 µM | 12 | 25.3 µM | 5.15 | 25 µM | 16.3 | 36 µM | 16.4 | 17.6 |
| OCc1ccn2c1[C@@H](O)CC2 |  |  |  | > 100 µM |  | > 100 |  | > 100 µM |  | > 100 µM |  | > 100 µM |  | > 100 µM | > 100 | > 100 |
| COc1cc(C(=O)N2CCN(c3ncccn3)CC2)c(N)cc1OCc1ccccc1 |  | > 100 | > 100 | > 100 µM | > 100 | > 100 | > 100 | > 100 µM | > 100 | > 100 µM | > 100 | > 100 µM | > 100 | > 100 µM |  | > 100 |
| COc1cc2c3c(n(CCCOC(=O)C(F)(F)F)c(=O)c2cc1OC)-c1cc2c(cc1C3=O)OCO2 | 0.202 | < 0.01 | < 0.01 |  |  | > 100 | < 0.01 |  | 0.135 | > 100 µM |  | > 29.2 µM | 3 | > 100 µM | 68.6 | 0.721 |
| CCOc1ccncc1[N+](=O)[O-] |  |  |  | > 100 µM |  | > 100 |  | > 100 µM |  | > 100 µM |  | > 100 µM |  |  | > 100 | > 100 |
| O=C(O)c1ccc(OCc2ccccc2)c(Cl)c1 |  |  |  | > 100 µM |  | > 100 |  | > 100 µM |  | > 100 µM |  | > 100 µM |  | > 100 µM | > 100 | > 100 |
| COc1cc(OC)c(/C=C/c2c3ccccc3cc[n+]2C)c(OC)c1 | 1.58 | 2.17 | 10.9 | > 100 µM | 2.12 | 14.2 | 1.51 | 9.58 µM | 3.27 | 23.1 µM | 1.02 | 18.2 µM | 1.82 | 8.83 µM | 21.8 | > 53.4 |
| COc1ccc(CCNC(=O)c2ccc(NC3=C(Cl)C(=O)N(Cc4ccccc4)C3=O)cc2)cc1OC | 7.68 | 29.4 | 43 | > 100 µM |  |  | 11.8 | 74.8 µM | 11.5 | 70.9 µM | 6.32 | > 100 µM | 32 | > 100 µM | > 100 | > 100 |
| NC(=O)OCCn1cc(-c2nc(-c3c[nH]c4ncccc34)cs2)c2ccccc21 | 1.5 | 2.29 | 2.05 | 8.24 µM | 1.3 | 4.53 | 1.57 | 5.41 µM | 2.24 | 7.66 µM | 0.989 | 5.31 µM | 2.46 | 12.5 µM | 6.04 | 7.7 |
| COc1ccc(-n2c(C)cc(-c3ccccc3)c2C)cc1 | 2.63 | 2.2 | 2.82 | 33.3 µM | 2.14 | 12.5 | 2.01 | 12.8 µM | 3.28 | 16.5 µM | 3.58 | > 100 µM | 3.13 | 18.9 µM | 9.98 | 7.58 |
| C=C1C(=O)OC2CC(C)C3(O)CCC(=O)C3(C)CC12 (centres undefined) |  |  |  | 36.2 µM |  | > 100 |  | > 100 µM |  | 99.1 µM |  | > 100 µM |  |  | > 100 | > 100 |
| COc1cc2c(c(OC)c1OC)-c1ncc3cc4c(cc3c1C2)OCO4 | 3.76 | 15.6 | 28.8 | 73.6 µM | 18.6 | 60.5 | 19.3 | > 100 µM | 26.2 | 67.3 µM |  |  | 15.5 | 38.2 µM | 20.1 | 39.8 |
| CCn1c(=O)c2c(=O)c3c4c(oc3oc2c2ccccc21)C(=O)c1ccccc1C4=O | > 36 | > 24.2 |  |  | > 100 | > 100 | > 25 | > 100 µM | > 71.5 | > 100 µM | > 100 | > 100 µM | > 100 | > 100 µM | > 100 | > 100 |
